Data taken from patent publication US20060276477A1, “Treatment method for anemia” (FibroGen, Inc., priority 2005, published 2006).

Tests used:
Format in all cases: in vivo
[1] = test system: circulating EPO; test: Circulating EPO levels in bilateral nephrectomized and sham-operated mice
Description: Mice underwent bilateral nephrectomy (BN) surgery (or were sham-operated). Two hours after BN surgery, mice were administered a single oral dose (30 mg/kg) of compound A. Circulating EPO levels were measured 6 hours after compound administration. […] The kidneys produce the majority of endogenous EPO.

[2] = test system: circulating EPO; test: Circulating EPO levels in mice after single intravenous or oral gavage dose; settings: 6 hours after administration; for EPO Intravenous: single intravenous dose (dose of the table not stated; 2-60 mg/kg tested); for EPO Oral Gavage: single oral gavage dose (dose of the table not stated; 2-60 mg/kg tested)
Description: (§1) Mice were administered various doses (2 mg/kg, 6 mg/kg, 20 mg/kg, 60 mg/kg) of compounds of the present invention by oral gavage or by intravenous injection. Circulating levels of EPO were determined […] hours after single-dose administration of compound. Hemoglobin levels were measured in mice on day 8 following administration of compound by oral gavage on day 1, day 3, and day 5.

[3] = test system: hemoglobin; test: Hemoglobin levels in mice on day 8 after oral gavage on day 1, 3 and 5; settings: for Hemoglobin 6 mg/kg cmpd: 6 mg/kg oral gavage on day 1, 3 and 5, measured day 8; for Hemoglobin 20 mg/kg cmpd: 20 mg/kg oral gavage on day 1, 3 and 5, measured day 8; for Hemoglobin 60 mg/kg cmpd: 60 mg/kg oral gavage on day 1, 3 and 5, measured day 8; for Hemoglobin 2 mg/kg cmpd: 2 mg/kg oral gavage on day 1, 3 and 5, measured day 8
Description: as §1

[4] = test system: circulating EPO; test: Peak circulating (serum) EPO levels in normal monkeys after a single dose; settings: 8-12 hours after administration
[5] = test system: hematocrit; test: Hematocrit in rats after intermittent dosing for 4 weeks
Description: Male (diamonds in FIG. 2) and female (triangles in FIG. 2) rats were administered various doses (20, 60, 150, 200, 300 mg/kg) of compound A two times per week (e.g., intermittent dosing) for 4 weeks. Hematocrit was determined on day 32.

[6] = test system: hemoglobin; test: Hemoglobin levels in anemic pre-dialysis human subjects with chronic kidney disease; settings: for Mean change from Baseline Hb Day 42 (or last value carried forward): oral three-times per week for 4 weeks
Description: The effects of compound of the present invention on erythropoiesis in anemic pre-dialysis subjects with advanced stage chronic kidney disease were determined. Study subjects had chronic kidney disease and anemia, having GFR<30 ml/min and Hb<10g/dL. Two anemic pre-dialysis subject populations with chronic kidney disease (CKD) were studied: (1) subjects with no previous exposure to rhEPO (i.e., rhEPO-naive) and (2) subjects who had been receiving continuous rhEPO therapy for at least 8 weeks. In rhEPO-treated subjects, rhEPO administration was discontinued 5-14 days prior to initiation of treatment with compound of the present invention Subjects were orally administered compound A three-times per week for 4 weeks. Erythropoiesis was measured by changes in hemoglobin levels and serum EPO concentrations.

[7] = test system: serum EPO; test: Serum EPO levels in healthy human subjects after compound administration; design: EPO AUC (0-24 hours): unit not given beside the values
Description: […] At the indicated times (hours) after compound administration, serum EPO levels were determined.
(§2) Increases in circulating EPO levels following administration of compound A or of rhEPO were compared. Table 3 and Table 2 below show Cmax EPO and EPO Area Under the Curve (AUC) values following intravenous (i.v.) or subcutaneous (s.c.) administration of various doses of rhEPO to human subjects, respectively. […] (See Table 1 below.)

[8] = test system: circulating EPO; test: Circulating EPO levels in mice after oral gavage of compound A
Description: Mice were administered various doses (0, 20, 30, 60 mg/kg) of compound A by oral gavage. Circulating levels of EPO were determined 6 hours after compound administration. […] Administration of 20 mg/kg of compound A increased circulating levels of EPO approximately two-fold.

[9] = Circulating EPO (Cmax, AUC) after i.v. or s.c. administration of rhEPO to human subjects; settings: assumes basal endogenous EPO of ~10 mIU/ml
Source text: as §2

## O=C(O)CNC(=O)c1nc(Cl)c2ccccc2c1O [Compound A, [(1-Chloro-4-hydroxy-isoquinoline-3-carbonyl)-amino]-acetic acid]
[1]; bilateral nephrectomized (BN) mice, single oral dose 30 mg/kg two hours after surgery, 6 hours after administration (FIG. 4B)
  circulating EPO levels: significant increase in EPO levels
[1]; sham-operated mice, single oral dose 30 mg/kg, 6 hours after administration (FIG. 4A)
  circulating EPO levels: an increase in circulating levels of EPO
[2]
  EPO Intravenous: 1309 mIU/ml
[3]
  Hemoglobin 6 mg/kg cmpd: 12.86 g/dL
  Hemoglobin 20 mg/kg cmpd: 12.92 g/dL
  Hemoglobin 60 mg/kg cmpd: 13.47 g/dL
[4]; single dose 13 mg/kg, pre-dose 2.1
  Peak EPO: 3.6
[4]; single dose 30 mg/kg, pre-dose 0.6
  Peak EPO: 2.9
[4]; single dose 40 mg/kg, pre-dose 0.8
  Peak EPO: 32.3
[4]; single dose 50 mg/kg, pre-dose 0
  Peak EPO: 21.4
[4]; single dose 60 mg/kg, pre-dose 0
  Peak EPO: 1194.2
[5]; male and female rats, 20, 60, 150, 200, 300 mg/kg two times per week for 4 weeks, day 32 (FIG. 2)
  hematocrit: increased hematocrit in rats in a dose-dependent manner
[5]; rats, 20 mg/kg two times per week for 4 weeks, day 32
  erythropoiesis, as determined by hematocrit: clinically-significant increase in erythropoiesis
[6]; CKD subjects after cessation of rhEPO therapy, placebo 1.5 g/dL decrease
  decrease from mean Hb baseline levels: 0.9 g/dL
[6]; CKD subjects previously on rhEPO (discontinued 5-14 days before), mean baseline Hb 11.7 g/dL, placebo −1.5
  Mean change from Baseline Hb Day 42 (or last value carried forward): -0.9 g/dL
[6]; rhEPO-naive CKD subjects, oral three-times per week for 4 weeks (FIG. 5)
  hemoglobin levels versus placebo: hemoglobin levels were higher
[6]; rhEPO-naive CKD subjects, mean baseline Hb 9.6 g/dL, placebo −0.35, p = 0.036
  Mean change from Baseline Hb Day 42 (or last value carried forward): 1.9 g/dL
[7]; healthy human subjects, 3, 6, 10, 15, 20 mg/kg oral (FIG. 3)
  serum EPO levels: increased serum EPO levels in a dose-dependent manner
[7]; human subjects, PHI dose 6 mg/kg
  EPO AUC (0-24 hours): 203.5
[7]; human subjects, PHI dose 10 mg/kg
  EPO AUC (0-24 hours): 331
[7]; human subjects, PHI dose 20 mg/kg
  EPO AUC (0-24 hours): 365.5
[7]; human subjects, PHI dose 30 mg/kg
  EPO AUC (0-24 hours): 508
[7]; human subjects, therapeutically effective doses of compound A versus rhEPO
  circulating EPO levels compared with rhEPO administration: substantially lower circulating EPO levels
[8]; oral gavage 0, 20, 30, 60 mg/kg, 6 hours after administration (FIG. 1)
  circulating levels of EPO: increased EPO levels in mice in a dose-dependent manner
[8]; oral gavage 20 mg/kg, 6 hours after administration
  increase of circulating levels of EPO: approximately two-fold

## Cc1nc(C(=O)NCC(=O)O)c(O)c2ccc(Oc3ccccc3)cc12 [Compound B, [(4-Hydroxy-1-methyl-7-phenoxy-isoquinoline-3-carbonyl)-amino]-acetic acid]
[4]; single dose 3 mg/kg, pre-dose 4.2
  Peak EPO: 13.1
[4]; single dose 30 mg/kg, pre-dose 0
  Peak EPO: 1534.0
[4]; single dose 60 mg/kg, pre-dose 1.2
  Peak EPO: 2739.8

## COc1ccc(Oc2ccc3c(O)c(C(=O)NCC(=O)O)ncc3c2)cc1 [Compound C, {[4-Hydroxy-7-(4-methoxy-phenoxy)-isoquinoline-3-carbonyl]-amino}-acetic acid]
[2]
  EPO Intravenous: 1663 mIU/ml
[3]
  Hemoglobin 6 mg/kg cmpd: 13.68 g/dL
  Hemoglobin 20 mg/kg cmpd: 14.29 g/dL
  Hemoglobin 60 mg/kg cmpd: 14.94 g/dL

## O=C(O)CNC(=O)c1ncc2c(Oc3ccccc3)cccc2c1O [Compound D, [(4-Hydroxy-8-phenoxy-isoquinoline-3-carbonyl)-amino]-acetic acid]
[2]
  EPO Intravenous: 5473 mIU/ml
  EPO Oral Gavage: 1201 mIU/ml
[3]
  Hemoglobin 2 mg/kg cmpd: 14.1 g/dL
  Hemoglobin 6 mg/kg cmpd: 13.98 g/dL
  Hemoglobin 20 mg/kg cmpd: 14.55q g/dL

## Cc1nc(C(=O)NCC(=O)O)c(O)c2cccc(Oc3ccccc3)c12 [Compound E, [(4-Hydroxy-1-methyl-8-phenoxy-isoquinoline-3-carbonyl)-amino]-acetic acid]
[2]
  EPO Intravenous: 2976 mIU/ml
  EPO Oral Gavage: 744 mIU/ml
[3]
  Hemoglobin 2 mg/kg cmpd: 12.23 g/dL
  Hemoglobin 6 mg/kg cmpd: 13.29 g/dL
  Hemoglobin 20 mg/kg cmpd: 13.41 g/dL
  Hemoglobin 60 mg/kg cmpd: 15.9 g/dL

## Cc1nc(C(=O)NCC(=O)O)c(O)c2ccc(Cl)cc12 [Compound F, [(7-Chloro-4-hydroxy-1-methyl-isoquinoline-3-carbonyl)-amino]-acetic acid]
[2]
  EPO Intravenous: 3967 mIU/ml
[3]
  Hemoglobin 6 mg/kg cmpd: 13.66 g/dL
  Hemoglobin 20 mg/kg cmpd: 14.15 g/dL
  Hemoglobin 60 mg/kg cmpd: 17.74 g/dL

## Cc1nc(C(=O)NCC(=O)O)c(O)c2cccc(Oc3ccc(F)cc3)c12 [Compound G, {[8-(4-Fluoro-phenoxy)-4-hydroxy-1-methyl-isoquinoline-3-carbonyl]-amino}-acetic acid]
[2]
  EPO Intravenous: 10969 mIU/ml
  EPO Oral Gavage: 2546 mIU/ml
[3]
  Hemoglobin 2 mg/kg cmpd: 14.39 g/dL
  Hemoglobin 6 mg/kg cmpd: 13.13 g/dL
  Hemoglobin 20 mg/kg cmpd: 14.85 g/dL
  Hemoglobin 60 mg/kg cmpd: 17.7 g/dL

## N#Cc1nc(C(=O)NCC(=O)O)c(O)c2sccc12 [Compound H, [(4-cyano-7-hydroxy-thieno[3,2-c]pyridine-6-carbonyl)-amino]-acetic acid]
[2]
  EPO Intravenous: 1242 mIU/ml
  EPO Oral Gavage: 608 mIU/ml
[3]
  Hemoglobin 2 mg/kg cmpd: 12.67 g/dL
  Hemoglobin 6 mg/kg cmpd: 13.65 g/dL
  Hemoglobin 20 mg/kg cmpd: 13.53 g/dL
  Hemoglobin 60 mg/kg cmpd: 14.2 g/dL

## rhEPO: recombinant human erythropoietin (rhEPO), an erythropoiesis stimulating protein; current therapy for anemia
[9]; rhEPO 10 U/kg i.v.
  Cmax EPO: 181 mIU/ml
[9]; rhEPO 50 U/kg i.v.
  Cmax EPO: 1,430 mIU/ml
[9]; rhEPO 150 U/kg i.v.
  Cmax EPO: 4,438 mIU/ml
[9]; rhEPO 300 U/kg s.c.
  Cmax EPO: 429 mIU/ml
[9]; rhEPO 450 U/kg s.c.
  Cmax EPO: 1,263 mIU/ml
[9]; rhEPO 500 U/kg i.v.
  Cmax EPO: 16,257 mIU/ml
[9]; rhEPO 600 U/kg s.c.
  Cmax EPO: 1,263 mIU/ml
